We go through one compound from US20250186439A1, “PYK2 INHIBITION MODULATES IMMUNE CELL FUNCTION” (The Children's Medical Center Corporation, priority 2022, published 2025).

Common to all, as to type: cell-based, mouse
Test [1] concerns MG6 cells. Nature of the test: Phagocytosis of pHrodo Red E. coli BioParticles by MG6 cells (confocal, IMARIS spot analysis). To be noted: 1000 nM, 24 h. Here is the method: FIGS. 5A-5D. Characteristics of Pyk2 inhibition on phagocytotic activity in microglia. FIG. 5A: Immunofluorescent imaging depicting phagocytosis of pHrodo Red E. coli BioParticles by MG6 cells after exposure to Pyk2 inhibitors. MG6 cells were either untreated (left) or treated with 1000 nM Pyk2 inhibitor treatment for 24 hours (right). Immunofluorescent images were obtained via confocal microscopy (×600). MG6 cells were fixed and stained with phalloidin-AlexaFluor488 to visualize actin, and with DAPI to visualize nuclei (encircled). Scale bar is 20 μm. […] FIG. 5B: Immunofluorescent imaging depicting phagocytosis of pHrodo Red E. coli BioParticles by mononucleated and multinucleated MG6 cells after exposure to Pyk2 inhibitors. MG6 cells were treated and imaged as in FIG. 5A. After obtaining three-dimensional images, BioParticles are quantified by a spot analysis using IMARIS software (bottom figures). FIG. 5C: Quantification of spot analysis in FIG. 5B. The output of IMARIS spot analysis was analyzed using one-way ANOVA. […] FIG. 5D: Phagocytotic activity for Aβ in MG6 cells. Immunostaining for Iba1 and Aβ in control and Pyk2 inhibitor treated group. MG6 cells were treated with Pyk2 inhibitor or vehicle for 24 hours and then Hilite-555 labelled Aβ42 was added for 24 hours. Data are representative images of four wells from three independent experiments. A 20 μm scale bar is in the bottom-left corner.
To assess whether or not Pyk2 inhibitor treated, multinuclear MG6 cells were also more phagocytic, treated MG6 cells were subsequently exposed to pHrodo Red E. coli BioParticles (Thermo Fisher Scientific #P35360), a fluorogenic phagocytic substrate derived from Escherichia coli. […] To assess if there was any difference in the phagocytosis of mononucleated and multinucleated MG6 cells, treated cells were assessed via confocal microscopy to generate three-dimensional images of phagocytosed particles, which were then quantified using IMARIS cell imaging software (FIG. 5B).

Test [2] concerns MG6 cells. Description: Phagocytosis of pHrodo Red E. coli BioParticles by sorted mono-/multinuclear MG6 cells (fluorescence plate reader). Here is the method: (§1) FIGS. 7A-7D. Pyk2 inhibition promotes the phagocytotic activity and inflammatory responses in microglia. FIG. 7A: Quantification of the effect of Pyk2 inhibitor treatment on proliferation of mononucleated and multinucleated MG6 cells. MG6 cells were pretreated with 1000 nM Pyk2 inhibitor for 24 hours and mono-/multi-nuclear cells were isolated and collected by fluorescent activated cell sorting. […] There is no difference in proliferation of mononuclear cells after Pyk2 inhibitor treatment compared to untreated control cells. FIG. 7B: Fluorescent imaging depicting the effect of Pyk2 inhibitor on phagocytosis of mononucleated and multinucleated MG6 cells. MG6 cells were pretreated with 1000 nM Pyk2 inhibitor for 24 hours and mono-/multi-nuclear cells were isolated and collected by fluorescent activated cell sorting. After sorting, cells were treated with pHrodo Red E. coli BioParticles. Representative images are shown at ×20 magnification level. FIG. 7C: Quantification of phagocytosis of mononucleated and multinucleated MG6 cells over time. After Pyk2 inhibitor treatment and cell sorting, MG6 cells were treated with pHrodo Red E. coli BioParticles for the indicated time. Fluorescence intensity was measured by fluorescence microplate reader at excitation/emission wavelengths of 560/580 nm. […] FIG. 7D: Quantification of the effect of Pyk2 inhibitor treatment on cytokine/chemokine levels of mononucleated and multinucleated MG6 cells. The relative mRNA levels of IL-6, IL-1β, IL-10, and TGF-β were measured by a real-time PCR (qPCR). Measured mRNA transcript levels are reported as the mean level±standard deviation (n=3; *: p-value<0.05; **: p-value <0.01; ***: p-value <0.005; ****: p-value <0.001; and *****: p-value <0.0005).
(§2) Next, the differences in the activity of mononucleated and multinucleated microglial cells in response to Pyk2 inhibition was further assessed. […] Mononucleated and multinucleated MG6 cells also differed regarding the cytokines and chemokines produced by each (FIG. 7D).

For test [3], the system named is IL-6, IL-1β, IL-10, and TGF-β mRNA. Description: Cytokine/chemokine mRNA levels (qPCR) in sorted MG6 cells. The settings on record: qPCR after inhibitor treatment. Here is the method: as §1, §2
(Real-time PCR tracks product formation cycle by cycle.)

The mark [4] stands for this setting: 4 and 5 hours after pHrodo treatment.

“Also recorded” adds a separate entry of the source.

For `CN(c1ccccc1CNc1nc(Nc2ccc3c(c2)CC(=O)N3)ncc1C(F)(F)F)S(C)(=O)=O` [PF-431396], the “phagocytic activity, treated mononuclear and multinuclear microglia combined vs controls” value in test [1] is reported as “significantly higher”. In test [1] (listed as Pyk2 inhibitor), the “phagocytosis of pHrodo Red E. coli BioParticles, mononucleated treated cells vs control” value is recorded as “no significant difference” and the “phagocytosis of pHrodo Red E. coli BioParticles, multinucleated treated cells vs control/mononucleated” value was “statistically significant increase; also recorded: significantly higher”. In addition, in test [2] (1000 nM pretreatment), the “phagocytosis of pHrodo BioParticles, sorted mononucleated cells vs control” value is “did not” and the “phagocytosis of pHrodo BioParticles, sorted multinucleated cells vs control” value is recorded as “increase in phagocytosis”. Moreover, in test [2] (setting [4]), the “phagocytic activity, Pyk2-mono vs control” value is recorded as “do not show significant difference”; the “phagocytic activity, Pyk2-multi vs Pyk2-mono and controls” value is “higher phagocytic activity”. The “phagocytic activity, sorted mononuclear cells (Pyk2-mono)” value in test [2] (3 hours after pHrodo treatment) is reported as “increased fluorescence signal”. Further, in test [2] (3 hours after pHrodo treatment, listed as Pyk2 inhibitor), the “phagocytic activity, sorted multinuclear cells (Pyk2-multi)” value is “statistically significant increase; also recorded: increased fluorescence signal”. In test [3], the “IL-1β expression, mononucleated MG6 cells” value is “increased expression”; the “IL-1β expression, multinucleated MG6 cells” value is “did not”; the “IL-6 expression, mononucleated MG6 cells” value was “increased expression”; the “IL-6 expression, multinucleated MG6 cells” value is “did not”. Also, in test [3], the “IL-10, mononucleated MG6 cells” value is reported as “reduction”; the “IL-10, multinucleated MG6 cells” value is “reduction”; the “TGF-β expression, multinucleated MG6 cells” value was “increase”.
